≈ marks a conversion by molar mass, not a printed value. Where “and” joins values, the source holds several entries; their conditions need not be identical. Equal entries are not always repeated. Where two headings read alike, the source gives them in different places.
Legend:
all Candida strains = experiment: MFC determination, summary; format: cell-based
[1] = test system: individual Aspergillus spp. (Table 14, species not named); experiment: MIC testing (CLSI M38-A2), Table 14; format: cell-based; conditions: Aspergillus sp. of Table 14, caspofungin read as MEC
C. parapsilosis = experiment: MIC testing (CLSI M27-A3); format: cell-based; design: MIC: unit not given beside the values
C. tropicalis = experiment: MIC testing (CLSI M27-A3); format: cell-based
[2] = Drug loading and stability by LC-DAD-QTOF / LC-UV; format: physicochemical; conditions: high concentrations of ascorbic acid
Method: The sizes and size distributions were measured using dynamic light scattering (Malvern Zetasizer and Nanoparticles Tracking Analyzer (NTA)) in phosphate buffer (pH 7). Dry weight was determined by drying three sample aliquots at 50° C. overnight. Drug loading and stability was determined weighing/pipetting three sample aliquots, dissolution in DMSO, and dilution for LC-DAD-QTOF analysis. The concentration of compound 1A was determined using three samples of amphotericin B USP as a standard. The LC-QTOF method was: • Mobile phases: 0.1% formic acid [A] and acetonitrile [B] • HPLC system: Agilent 1290 HPLC system with a 1290 DAD connected to a QTOF • Column: Polaris 3 C18, 150×2 mm, 3 μm (Varian) • Column thermostat: 30° C. • Flow rate: 0.3 ml/min • Injection volume: 2 μL • Wavelength: 385 nm for measuring compound 1A/AMB, Scan 190-600 nm • Software: MassHunter Qualitative analysis B.0.600 • Post time: 5 min • QTOF was operated in negative electrospray mode (ESI−) • The HPLC gradient is shown in Table 1.

C. glabrata strains = experiment: MFC determination; format: cell-based; design: MFC: unit not given beside the values
[3] = test system: Candida albicans ATCC 10231; experiment: MIC50 growth inhibition assay of compositions (OD600), Example 12; format: cell-based; conditions: Candida albicans, concentration giving 50% growth inhibition, read-out: MIC50
Method: Efficacy of the compositions was determined using Minimum Inhibitory Concentration assays, and the concentration of active compound giving 50% growth inhibition of the indicator organism was reported (MIC50). The assay was performed in well plates with two (Müller-Hinton medium) or three parallel (M19-medium) cell cultures for each condition.
Cell Culture Medium: Müller-Hinton and M19 without NaCl.
Indicator Organism: Candida albicans ATCC 10231
Stock Solutions of the Active Compounds and Control: • Amphotericin B (USP): vacuum dried powder was dissolved in DMSO to 2.5 mg/mL giving a final concentration after inoculation of 2.5 μg/mL in the well with the highest concentration. • compound 1A (custom made): powder was dissolved in DMSO to 2.5 mg/mL giving a final concentration after inoculation of 2.5 μg/ml compound 1A in the well with the highest concentration. It is assumed that the batch is 70% pure. • Example 3 composition: the formulation was a suspension with 18 mg/mL nanoparticles. The suspension was diluted in a medium and C. albicans inoculum to a final concentration of 5 μg/mL of compound 1A and 130 μg/mL of […]. From this solution 10 dilutions were prepared giving 0.009 μg/ml compound 1A in the lowest concentration. • Empty poly(ethylbutyl cyanoacrylate) particles: empty poly(ethylbutyl cyanoacrylate) particles were used as a reference. The empty poly(ethylbutyl cyanoacrylate) was produced in the same manner as those in Examples 2 and 3, with the exception that they were prepared at pH 1, with vanillin concentration of 10% (w/w), and. The particles were diluted in the same manner as Example 3. The highest poly(ethylbutyl cyanoacrylate) concentration tested was 130 μg/mL.
Growth measurements were performed at OD600.

A. fumigatus AF91 [4] = experiment: In vitro activity (MIC) against the infecting strain, Example 17; format: cell-based, Aspergillus fumigatus; conditions: Aspergillus fumigatus, read-out: MIC
Method: Minimum Inhibitory Concentration: MIC testing was performed according to the Clinical and Laboratory Standards Institute (CLSI) M27-A3 and M38-A2 standards for the susceptibility testing of yeasts and filamentous fungi, respectively (Cryptococcus isolates were incubated for 72 h). For yeast strains, the incubation temperature and time were 35° C. and 24-48 h, respectively, and the inoculum size was 0.5-2.5×10^3 CFU/ml. For filamentous strains, the inoculum size was 0.4-5×10^4 CFU/ml, and the incubation time was strain and drug specific. RPMI 1640 was the test medium throughout, with the exception of the use of YNB for Cryptococcus. Inhibition endpoints for compound 1A were recorded at 50% and 100% after both 24 h and 48 h incubation; caspofungin results against Aspergillus strains were read as minimum effective concentrations (MEC), the lowest concentration that leads to small, rounded, compact growth as compared to the confluent growth of the control.

A. fumigatus AF91 [5] = experiment: In vitro activity (MFC) against the infecting strain, Example 17; format: cell-based, Aspergillus fumigatus; conditions: Aspergillus fumigatus, read-out: MFC
Method: Minimum Fungicidal Concentration: MFC determinations were performed according to the modifications previously described by Canton et al., Diagn. Microbiol. Infect. Dis., 45:203-206, 2003, and Ghannoum and Isham, Infectious Diseases in Clinical Practice, 15(4):250-253, 2007.
Specifically, the total contents of each clear well from the MIC assay were subcultured onto potato dextrose agar. To avoid antifungal carryover, the aliquots were allowed to soak into the agar and then were streaked for isolation once dry, thus removing the cells from the drug source. Fungicidal activity is defined as ≥99.9% reduction in the number of colony forming units (CFU)/ml from the starting inoculum count, while fungistatic activity is defined as <99.9% reduction. […] MIC and MFC values are considered to be equivalent if they are within 2 dilutions.

[6] = test system: Blastomyces dermatitidis, Coccidioides immitis, and Histoplasma capsulatum strains; format: cell-based; conditions: dimorphic fungal isolates; in µg/mL
Cr. neoformans strains = experiment: MFC determination; format: cell-based, Cryptococcus neoformans; conditions: Cr. neoformans
[7] = test system: Fusarium strains (Table 18); experiment: MIC testing (CLSI M38-A2), Table 18; format: cell-based, Fusarium spp.

C[C@@H]1[C@H](O)[C@@H](C)/C=C/C=C/C=C/C=C/C=C/C=C/C=C/[C@H](O[C@@H]2O[C@H](C)[C@@H](O)[C@H](N)[C@@H]2O)C[C@@H]2O[C@](O)(C[C@@H](O)[C@H](O)CC[C@@H](O)C[C@@H](O)C[C@@H](O)CC(=O)O[C@H]1C)C[C@H](O)[C@H]2C [Compound 1A]
MFC Range (all Candida strains; in µg/mL): 0.125-16 | MFC50 (all Candida strains; kills 50% of strains): 1 µg/mL (≈ 1.12 µM) | MFC90 (all Candida strains; kills 90% of strains): 2 µg/mL (≈ 2.24 µM) | MIC Range ([1]; in µg/mL): 1-2 | MIC50 ([1]; inhibits 50% of strains): 2 µg/mL (≈ 2.24 µM) | MIC90 ([1]; inhibits 90% of strains): 2 µg/mL (≈ 2.24 µM) | MIC Range (C. parapsilosis; C. parapsilosis strains, in µg/mL): 0.25-2 | MIC50 (C. parapsilosis; C. parapsilosis, inhibits 50% of strains): 0.25 µg/mL (≈ 0.28 µM) | MIC90 (C. parapsilosis; C. parapsilosis, inhibits 90% of strains): 2 µg/mL (≈ 2.24 µM) | MIC (C. parapsilosis; individual C. parapsilosis strain with elevated MICs to non-polyene comparators (Table 22)): 0.5 (2×) and 1 | MIC Range (C. tropicalis; C. tropicalis strains, in µg/mL): 0.5-8 | MIC50 (C. tropicalis; C. tropicalis, inhibits 50% of strains): 1 µg/mL (≈ 1.12 µM) | MIC90 (C. tropicalis; C. tropicalis, inhibits 90% of strains): 8 µg/mL (≈ 8.95 µM) | stability in solution [2]: chemically dehydrated | MFC Range (C. glabrata strains; C. glabrata strains, in µg/mL): 0.5-2 | MFC50 (C. glabrata strains; C. glabrata, kills 50% of strains): 1 µg/mL (≈ 1.12 µM) | MFC90 (C. glabrata strains; C. glabrata, kills 90% of strains): 2 µg/mL (≈ 2.24 µM) | MFC (C. glabrata strains; individual C. glabrata strain with elevated MICs to non-polyene comparators (Table 22)): 1 (5×) and 2 | MIC50 ([3]; ATCC10231, M19 medium): 0.18 µg/mL (≈ 0.201 µM) | MIC50 ([3]; ATCC10231, Müller-Hinton medium): 0.06 µg/mL (≈ 0.0671 µM) | MIC (A. fumigatus AF91 [4]): 2 µg/mL (≈ 2.24 µM) | MFC (A. fumigatus AF91 [5]): 2 µg/mL (≈ 2.24 µM) | MIC Range [6]: <0.03-0.25 | MFC50 (Cr. neoformans strains; kills 50% of strains): 1 µg/mL (≈ 1.12 µM) | MFC90 (Cr. neoformans strains; kills 90% of strains): > 4 µg/mL | MIC Range ([7]; in µg/mL): 1-4 | MIC50 ([7]; inhibits 50% of strains): 2 µg/mL (≈ 2.24 µM) | MIC90 ([7]; inhibits 90% of strains): 4 µg/mL (≈ 4.47 µM)
